Measurements from patent US7662832B2, “Pyrrolo[2,3-c]pyridine derivatives and processes for the preparation thereof” (priority 2004, dated 2010).
Structures can show the parent of a compound that is named as a salt.

Biological target: Proton Pump (H^+/K^+-ATPase) (Sus scrofa, UniProt P19156)
Assay: Inhibitory effects on proton pump (H^+/K^+-ATPase) activity
Format: biochemical
Details: hog gastric vesicles; K^+ stimulated H^+/K^+-ATPase activity; 30 minutes at 37° C.

Chain of Proton Pump (H^+/K^+-ATPase) (P19156 2-1034 limits assumed): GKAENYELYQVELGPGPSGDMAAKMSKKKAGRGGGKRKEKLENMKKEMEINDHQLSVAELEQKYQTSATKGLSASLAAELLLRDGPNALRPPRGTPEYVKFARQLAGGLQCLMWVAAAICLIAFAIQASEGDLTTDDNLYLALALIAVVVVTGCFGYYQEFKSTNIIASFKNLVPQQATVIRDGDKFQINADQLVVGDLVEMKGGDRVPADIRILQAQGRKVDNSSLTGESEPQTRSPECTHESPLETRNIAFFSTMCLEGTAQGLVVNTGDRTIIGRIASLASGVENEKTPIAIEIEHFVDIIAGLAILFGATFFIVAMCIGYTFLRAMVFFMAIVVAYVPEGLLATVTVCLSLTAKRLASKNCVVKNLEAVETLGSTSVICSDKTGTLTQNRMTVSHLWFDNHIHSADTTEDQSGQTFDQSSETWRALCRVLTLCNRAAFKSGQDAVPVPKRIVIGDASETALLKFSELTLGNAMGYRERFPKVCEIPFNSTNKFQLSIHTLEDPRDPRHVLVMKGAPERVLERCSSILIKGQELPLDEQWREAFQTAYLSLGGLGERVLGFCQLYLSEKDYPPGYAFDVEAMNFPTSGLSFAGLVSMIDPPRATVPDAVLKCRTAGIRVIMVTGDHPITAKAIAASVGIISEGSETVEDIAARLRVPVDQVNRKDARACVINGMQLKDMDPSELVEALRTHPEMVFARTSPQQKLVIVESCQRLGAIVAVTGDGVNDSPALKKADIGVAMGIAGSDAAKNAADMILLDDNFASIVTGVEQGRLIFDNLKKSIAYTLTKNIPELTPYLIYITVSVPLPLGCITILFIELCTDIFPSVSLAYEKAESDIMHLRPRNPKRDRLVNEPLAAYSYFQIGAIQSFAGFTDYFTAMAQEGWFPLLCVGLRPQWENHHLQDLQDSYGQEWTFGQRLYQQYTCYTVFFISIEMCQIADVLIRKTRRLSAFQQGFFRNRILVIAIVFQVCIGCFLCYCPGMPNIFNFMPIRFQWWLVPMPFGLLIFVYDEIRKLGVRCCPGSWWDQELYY
Chain of Proton Pump (H^+/K^+-ATPase) (P18434 whole entry partner): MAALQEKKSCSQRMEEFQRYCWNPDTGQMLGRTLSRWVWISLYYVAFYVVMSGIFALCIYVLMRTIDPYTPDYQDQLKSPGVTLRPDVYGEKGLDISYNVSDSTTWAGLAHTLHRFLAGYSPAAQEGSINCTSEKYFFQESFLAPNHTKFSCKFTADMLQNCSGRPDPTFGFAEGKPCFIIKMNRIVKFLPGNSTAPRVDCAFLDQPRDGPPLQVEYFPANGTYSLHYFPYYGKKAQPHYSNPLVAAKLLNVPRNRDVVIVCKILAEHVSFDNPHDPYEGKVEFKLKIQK

**Q.** `Cc1c(C)n(Cc2ccccc2)c2c(N3CCc4ccccc4C3C)nccc12` (stereo not shown) [Example 556, 2-(1-benzyl-2,3-dimethyl-1H-pyrrolo[2,3-c]pyridin-7-yl)-1-methyl-1,2,3,4-tetrahydroisoquinoline hydrochloride] was tested. Which IC50 did it give?
**A.** 130 nM

**Q.** `COCCn1c(C)c(C)c2cc(C(=O)N3CCN(C)CC3)nc(N3CCc4ccccc4C3)c21` [Example 821, [7-(3,4-dihydro-1H-isoquinolin-2-yl)-1-(2-methoxyethyl)-2,3-dimethyl-1H-pyrrolo[2,3-c]pyridin-5-yl]-(4-methylpiperazin-1-yl)-methanone hydrochloride] was tested. Which IC50 did it give?
**A.** 26 nM

**Q.** With `Cc1c(C)n(Cc2ccccc2F)c2c(N3CCc4ccccc4C3)nccc12` [Example 483, 1-(2-fluorobenzyl)-7-(1,2,3,4-tetrahydroisoquinolin-2-yl)-2,3-dimethyl-1H-pyrrolo[2,3-c]pyridine hydrochloride] as the compound, how does the IC50 read?
**A.** 330 nM

**Q.** `Cc1c(C)n(Cc2ccccc2)c2c(N3CCc4ccccc4C3)nc(C(=O)N(C)C)cc12` [Example 771, 1-benzyl-7-(3,4-dihydro-1H-isoquinolin-2-yl)-2,3-dimethyl-N-dimethyl-1H-pyrrolo[2,3-c]pyridin-5-carboxamide hydrochloride] was tested. Which IC50 did it give?
**A.** 36 nM

**Q.** How did the IC50 turn out when `CC(C)=CCn1c(C)c(C)c2cc(C(=O)N3CCN(C)CC3)nc(N3CCc4ccccc4C3)c21` [Example 834, [7-(3,4-dihydro-1H-isoquinolin-2-yl)-2,3-dimethyl-1-(3-methylbut-2-enyl)-1H-pyrrolo[2,3-c]pyridin-5-yl]-(4-methylpiperazin-1-yl)-methanone hydrochloride] was run?
**A.** 37 nM

**Q.** `COc1ccc(-c2nccc3c(C)c(C)n(Cc4ccccc4)c23)cc1` [Example 350, 1-benzyl-7-(4-methoxyphenyl)-2,3-dimethyl-1H-pyrrolo[2,3-c]pyridine hydrochloride] was tested. Which IC50 did it give?
**A.** 210 nM

**Q.** How did the IC50 turn out when `Cc1c(C)n(Cc2ccc(C(C)(C)C)cc2)c2c(N3CCc4ccccc4C3)nc(C(=O)N3CCN(C)CC3)cc12` [Example 835, [1-(4-tert-butylbenzyl)-7-(3,4-dihydro-1H-isoquinolin-2-yl)-2,3-dimethyl-1H-pyrrolo[2,3-c]pyridin-5-yl]-(4-methylpiperazin-1-yl)-methanone hydrochloride] was run?
**A.** 134 nM

**Q.** How did the IC50 turn out when `COCCn1c(C)c(C)c2ccnc(COc3ccc(F)cc3F)c21` [Example 34, 7-(2,4-difluorophenoxymethyl)-1-(2-methoxyethyl)-2,3-dimethyl-1H-pyrrolo[2,3-c]pyridine hydrochloride] was run?
**A.** 1460 nM

**Q.** Which IC50 does the source give for `CCn1c(C)c(C)c2cc(C(=O)N3CCCCC3)nc(N3CCc4ccccc4C3)c21` [Example 787, [7-(3,4-dihydro-1H-isoquinolin-2-yl)-1-ethyl-2,3-dimethyl-1H-pyrrolo[2,3-c]pyridin-5-yl]-(piperidin-1-yl)-methanone hydrochloride] here?
**A.** 1.1 nM

**Q.** Which IC50 does the source give for `Cc1c(C)n(Cc2cccc(F)c2)c2c(N3CCc4ccccc4C3)nc(C(=O)N3CCOCC3)cc12` [Example 779, [7-(3,4-dihydro-1H-isoquinolin-2-yl)-1-(3-fluorobenzyl)-2,3-dimethyl-1H-pyrrolo[2,3-c]pyridin-5-yl]-(morpholin-4-yl)-methanone hydrochloride] here?
**A.** 62 nM

**Q.** With `Cc1ccc(Cn2c(C)c(C)c3ccnc(CCc4ccccc4)c32)cc1` [Example 444, 2,3-dimethyl-1-(4-methylbenzyl)-7-phenethyl-1H-pyrrolo[2,3-c]pyridine hydrochloride] as the compound, how does the IC50 read?
**A.** 122 nM

**Q.** How did the IC50 turn out when `COc1ccc(Cn2c(C)c(C)c3ccnc(CCc4ccccc4)c32)cc1` [Example 445, 1-(4-methoxybenzyl)-2,3-dimethyl-7-phenethyl-1H-pyrrolo[2,3-c]pyridine hydrochloride] was run?
**A.** 460 nM

**Q.** How did the IC50 turn out when `Cc1c(C)n(CC2CC2)c2c(N3CCc4ccccc4C3)nc(C(=O)N3CCN(C)CC3)cc12` [Example 817, [1-cyclopropylmethyl-7-(3,4-dihydro-1H-isoquinolin-2-yl)-2,3-dimethyl-1H-pyrrolo[2,3-c]pyridin-5-yl]-(4-methylpiperazin-1-yl)-methanone hydrochloride] was run?
**A.** 24 nM

**Q.** `CCn1c(C)c(C)c2ccnc(N3CCc4ccccc4C3C3CC3)c21` (stereo not shown) [Example 569, 1-cyclopropyl-2-(1-ethyl-2,3-dimethyl-1H-pyrrolo[2,3-c]pyridin-7-yl)-1,2,3,4-tetrahydroisoquinoline hydrochloride] was tested. Which IC50 did it give?
**A.** 500 nM

**Q.** With `Cc1c(C)n(Cc2cccc(F)c2)c2c(N3CCc4ccccc4C3)nc(CNc3ccc(F)cc3)cc12` [Example 866, N-[7-(3,4-dihydro-1H-isoquinolin-2-yl)-1-(3-fluorobenzyl)-2,3-dimethyl-1H-pyrrolo[2,3-c]pyridin-5-ylmethyl]-4-fluorophenylamine hydrochloride] as the compound, how does the IC50 read?
**A.** 1030 nM

**Q.** How did the IC50 turn out when `C=CCn1c(C)c(C)c2cc(C#N)nc(N3CCc4ccccc4C3)c21` [Example 684, 1-allyl-7-(3,4-dihydro-1H-isoquinolin-2-yl)-2,3-dimethyl-1H-pyrrolo[2,3-c]pyridin-5-carbonitrile] was run?
**A.** 490 nM

**Q.** `Cc1[nH]c2c(NCc3ccc(F)cc3)nc(C#N)cc2c1C` [Example 910, 7-(4-fluorobenzylamino)-2,3-dimethyl-1H-pyrrolo[2,3-c]pyridin-5-carbonitrile hydrochloride] was tested. Which IC50 did it give?
**A.** 393 nM

**Q.** With `CCn1c(C)c(C)c2ccnc(NCc3ccc(F)cc3)c21` [Example 223, 1-ethyl-7-(4-fluorobenzylamino)-2,3-dimethyl-1H-pyrrolo[2,3-c]pyridine hydrochloride] as the compound, how does the IC50 read?
**A.** 440 nM

**Q.** With `Cc1c(C)n(CC(C)C)c2c(-c3ccc(Cl)cc3)nccc12` [Example 304, 7-(4-chlorophenyl)-1-isobutyl-2,3-dimethyl-1H-pyrrolo[2,3-c]pyridine hydrochloride] as the compound, how does the IC50 read?
**A.** 915 nM

**Q.** Which IC50 does the source give for `Cc1c(C)n(CC(C)C)c2c(NCc3ccccc3)nccc12` [Example 184, 7-benzylamino-1-isobutyl-2,3-dimethyl-1H-pyrrolo[2,3-c]pyridine hydrochloride] here?
**A.** 240 nM

**Q.** Which IC50 does the source give for `Cc1c(C)n(Cc2ccccc2)c2c(COc3ccc(F)cc3)nccc12` [Example 3, 1-benzyl-7-(4-fluorophenoxymethyl)-2,3-dimethyl-1H-pyrrolo[2,3-c]pyridine hydrochloride] here?
**A.** 58 nM

**Q.** `CCn1c(C)c(C)c2cc(C(=O)N3CCN(C)CC3)nc(N3CCc4ccccc4C3)c21` [Example 782, [7-(3,4-dihydro-1H-isoquinolin-2-yl)-1-ethyl-2,3-dimethyl-1H-pyrrolo[2,3-c]pyridin-5-yl]-(4-methylpiperazin-1-yl)-methanone hydrochloride] was tested. Which IC50 did it give?
**A.** 1 nM

**Q.** `C=CCn1c(C)c(C)c2cc(C(=O)N3CCCCC3)nc(N3CCc4ccccc4C3)c21` [Example 786, [1-allyl-7-(3,4-dihydro-1H-isoquinolin-2-yl)-2,3-dimethyl-1H-pyrrolo[2,3-c]pyridin-5-yl]-(piperidin-1-yl)-methanone hydrochloride] was tested. Which IC50 did it give?
**A.** 15 nM

**Q.** For `CCn1c(C)c(C)c2cc(C(=O)N3CCC(CO)CC3)nc(N3CCc4ccccc4C3)c21` [Example 805, [7-(3,4-dihydro-1H-isoquinolin-2-yl)-1-ethyl-2,3-dimethyl-1H-pyrrolo[2,3-c]pyridin-5-yl]-(4-hydroxymethylpiperidin-1-yl)-methanone hydrochloride], which IC50 is on record?
**A.** 31 nM

**Q.** `C=CCn1c(C)c(C)c2ccnc(N3CCc4ccccc4C3C3CC3)c21` (stereo not shown) [Example 570, 2-(1-allyl-2,3-dimethyl-1H-pyrrolo[2,3-c]pyridin-7-yl)-1-cyclopropyl-1,2,3,4-tetrahydroisoquinoline hydrochloride] was tested. Which IC50 did it give?
**A.** 120 nM
